Measured values: patent publication US20240043427A1 (Gilead Sciences, Inc., priority 2020, published 2024)
pEC50, pIC50: −log10 of the molar value.

Columns and labels:
[1] = biological target: T1, CD73 (Homo sapiens (Human), UniProt P21589); type: biochemical; conditions: 1 mM NaH2PO4 in enzyme buffer, CD73 0.3 nM, AMP 15 uM
Description: Compound serial dilutions were pre-spotted into Thermo Nunc assay plate. 50 uL CD73 enzyme buffer (CD73 purchased from R&D system=0.6 nM, 25 mM Tris, pH 7.4, 5 mM MgCl2, 1 mM NaH2PO4) was added into the assay plate and incubate for 15 mins. […] After incubation for 60 mins, the supernatant (20 uL) was transferred into 384-well NUNC plate pre-filled with 60 uL Quench buffer (80% organic and 20% water+0.1% FA) with internal standard. The plate was spun down at 4500 rpm for 20 mins, then 20 uL of supernatant was transferred to another Nunc plate prefilled with 80 uL of water. The samples were analyzed using Rapid fire.

[2] = biological target: T1, CD73; experiment: MDA-MB-231 Cell Based CD73 Activity Assay (DMEM); conditions: MDA-MB-231-GFP cells, DMEM medium with 10% human plasma, 200 uM AMP

T1 sequence (P21589 27-574): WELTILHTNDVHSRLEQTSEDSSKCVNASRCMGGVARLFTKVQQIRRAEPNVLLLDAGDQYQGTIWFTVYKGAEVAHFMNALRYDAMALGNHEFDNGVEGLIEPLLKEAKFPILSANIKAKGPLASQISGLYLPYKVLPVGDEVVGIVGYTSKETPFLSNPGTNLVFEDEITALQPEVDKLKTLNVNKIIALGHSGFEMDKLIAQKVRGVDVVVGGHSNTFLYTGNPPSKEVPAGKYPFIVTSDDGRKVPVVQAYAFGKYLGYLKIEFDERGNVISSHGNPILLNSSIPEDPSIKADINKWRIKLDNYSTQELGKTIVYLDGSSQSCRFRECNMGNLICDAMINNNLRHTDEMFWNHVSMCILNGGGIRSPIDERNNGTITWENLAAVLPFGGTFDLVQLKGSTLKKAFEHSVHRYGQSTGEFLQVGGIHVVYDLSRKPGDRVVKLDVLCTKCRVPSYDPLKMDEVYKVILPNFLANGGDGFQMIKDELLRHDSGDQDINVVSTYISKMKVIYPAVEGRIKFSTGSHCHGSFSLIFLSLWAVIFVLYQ

Question: With `O=c1[nH]cc(-c2cc(N3C[C@H](Oc4cc(C(F)(F)F)ccn4)C(F)(F)C3)c3nccn3n2)c(=O)[nH]1` [Example 330, (S)-5-(8-(3,3-difluoro-4-((4-(trifluoromethyl)pyridin-2-yl)oxy)pyrrolidin-1-yl)imidazo[1,2-b]pyridazin-6-yl)pyrimidine-2,4(1H,3H)-dione] as the molecule, how does the pIC50 [1] read?
Answer: 8.97

Question: And the pEC50 [2]?
Answer: 9.29

Question: With `O=c1[nH]cc(-c2cc([C@H]3C[C@@H]3c3ccc4c(C(F)(F)F)nn(CC(F)(F)F)c4c3)c3ncc(F)n3n2)c(=O)[nH]1` [Example 329, 5-(3-fluoro-8-((1S,2S)-2-(1-(2,2,2-trifluoroethyl)-3-(trifluoromethyl)-1H-indazol-6-yl)cyclopropyl)imidazo[1,2-b]pyridazin-6-yl)pyrimidine-2,4(1H,3H)-dione] as the molecule, how does the pIC50 [1] read?
Answer: 9.19

Question: And the pEC50 [2]?
Answer: 9.15

Question: `N#Cc1ccc([C@H]2C[C@@H]2c2cc(-c3c[nH]c(=O)[nH]c3=O)nn3c(F)cnc23)cc1` [Example 158, 4-((1S,2S)-2-(6-(2,4-dioxo-1,2,3,4-tetrahydropyrimidin-5-yl)-3-fluoroimidazo[1,2-b]pyridazin-8-yl)cyclopropyl)benzonitrile] was tested. Which pIC50 [1] did it give?
Answer: 9.26

Question: And the pEC50 [2]?
Answer: 8.60

Question: How did the pIC50 [1] turn out when `O=c1[nH]cc(-c2cc(N3C4CCCC3CC4)c3nccn3n2)c(=O)[nH]1` [Example 648, 5-(8-(8-azabicyclo[3.2.1]octan-8-yl)imidazo[1,2-b]pyridazin-6-yl)pyrimidine-2,4(1H,3H)-dione] was run?
Answer: < 6.60

Question: And the pEC50 [2]?
Answer: 5.71

Question: With `CC1(C)CN(c2cc(-c3c[nH]c(=O)[nH]c3=O)nn3ncnc23)CC1(F)F` [Example 426, 5-(8-(3,3-difluoro-4,4-dimethylpyrrolidin-1-yl)-[1,2,4]triazolo[1,5-b]pyridazin-6-yl)pyrimidine-2,4(1H,3H)-dione] as the molecule, how does the pIC50 [1] read?
Answer: 9.64

Question: And the pEC50 [2]?
Answer: 8.35

Question: How did the pIC50 [1] turn out when `O=c1[nH]cc(-c2cc(NCCc3ccccc3)c3nccn3n2)c(=O)[nH]1` [Example 487, 5-(8-(phenethylamino)imidazo[1,2-b]pyridazin-6-yl)pyrimidine-2,4(1H,3H)-dione] was run?
Answer: 7.56

Question: And the pEC50 [2]?
Answer: 7.09

Question: `COC[C@@H](C)NC(=O)O[C@H]1CN(c2cc(-c3c[nH]c(=O)[nH]c3=O)nn3ccnc23)CC1(F)F` [Example 548, (S)-1-(6-(2,4-dioxo-1,2,3,4-tetrahydropyrimidin-5-yl)imidazo[1,2-b]pyridazin-8-yl)-4,4-difluoropyrrolidin-3-yl ((R)-1-methoxypropan-2-yl)carbamate] was tested. Which pIC50 [1] did it give?
Answer: 9.20

Question: And the pEC50 [2]?
Answer: 9.89

Question: How did the pIC50 [1] turn out when `CC1(C)CN(c2cc(-c3c[nH]c(=O)[nH]c3=O)nc3c(Cl)cnn23)CC1(F)F` [Example 220, 5-(3-chloro-7-(3,3-difluoro-4,4-dimethylpyrrolidin-1-yl)pyrazolo[1,5-a]pyrimidin-5-yl)pyrimidine-2,4(1H,3H)-dione] was run?
Answer: 8.27

Question: And the pEC50 [2]?
Answer: 6.94

Question: With `O=C1CN(c2cc(-c3c[nH]c(=O)[nH]c3=O)nn3ccnc23)CCN1Cc1ccc(F)cc1` [Example 482, 5-(8-(4-(4-fluorobenzyl)-3-oxopiperazin-1-yl)imidazo[1,2-b]pyridazin-6-yl)pyrimidine-2,4(1H,3H)-dione] as the molecule, how does the pIC50 [1] read?
Answer: < 6.60

Question: And the pEC50 [2]?
Answer: 5.91

Question: How did the pIC50 [1] turn out when `O=c1[nH]cc(-c2cc([C@H]3C[C@@H]3c3cc(Cl)c4cnn(CC(F)(F)F)c4c3)c3nccn3n2)c(=O)[nH]1` [Example 460, 5-(8-((1S,2S)-2-(4-chloro-1-(2,2,2-trifluoroethyl)-1H-indazol-6-yl)cyclopropyl)imidazo[1,2-b]pyridazin-6-yl)pyrimidine-2,4(1H,3H)-dione] was run?
Answer: 9.34

Question: What about the pEC50 [2] of the same molecule?
Answer: 9.42

Question: `O=c1[nH]cc(-c2cc(N3CCC(F)(c4ccccc4)C3)c3nccn3n2)c(=O)[nH]1` (stereo not shown) [Example 253, 5-(8-(3-fluoro-3-phenylpyrrolidin-1-yl)imidazo[1,2-b]pyridazin-6-yl)pyrimidine-2,4(1H,3H)-dione] was tested. Which pIC50 [1] did it give?
Answer: 7.70

Question: What about the pEC50 [2] of the same molecule?
Answer: 6.80
